Results published in patent US20210386781A1, “A GROUP OF CHIMERIC ANTIGEN RECEPTORS (CARS)” (ST. ANNA KINDERKREBSFORSCHUNG, priority 2018, published 2021).

Assays:
A431-fLuc = test: Luciferase-based cytotoxicity assay, stably transduced CAR T cells against A431-fLuc, Example 4; format: cell-based, human; details: T cells without CAR expression; 10 nM
Protocol: Luciferase-expressing tumour cells were co-cultured with CAR T cells at an E:T cell ratio of 2:1 with 10,000 target cells/well in white round-bottom 96 well plates for 4 hours at 37° C. in cytotoxicity assay medium, consisting of phenol-free RPMI, 10% FCS, 1% L-Glutamine and 1% penicillin-streptomycin. Finally, remaining living cells were quantified by determination of the residual luciferase activity of the co-culture. After equilibration to room temperature for 10 minutes, luciferin was added to the cell suspension (150 μg/mL final concentration) and luciferase activity was measured 20 minutes later using the ENSPIRE Multimode plate reader. The percentage of specific lysis was determined with the following formula:
% specific lysis=100−((RLU from well with effector and target cell co-culture)/(RLU from well with target cells only)×100)).
Dimerization of transgenes was induced prior to co-cultivation experiments. Primary T cells were diluted to the final cell concentration in the respective cell culture medium. The homodimerization agent AP20187 was diluted in cell culture medium and was added at 10 nM final concentration. Addition of the respective vehicle control DMSO at the same concentration served as control. Cells were incubated at 37° C. for 30 minutes to ensure efficient dimerization of transgenes and subsequently used for in vitro experiments.

[1] = tested on: Jurkat T cells expressing tHER2; test: Luciferase-based cytotoxicity assay, affibody-based CAR T cells against tHER2-expressing Jurkat T cells, Example 8; format: cell-based, human; details: binder fused to 8ser-BB-FKBP(36V)-3z; with or without 10 nM AP20187; E:T 2:1, 4 hours
Protocol: Luciferase-expressing tumour cells were co-cultured with CAR T cells at an E:T cell ratio of 2:1 with 10,000 target cells/well in white round-bottom 96 well plates for 4 hours at 37° C. in cytotoxicity assay medium, consisting of phenol-free RPMI, 10% FCS, 1% L-Glutamine and 1% penicillin-streptomycin. Finally, remaining living cells were quantified by determination of the residual luciferase activity of the co-culture. After equilibration to room temperature for 10 minutes, luciferin was added to the cell suspension (150 μg/mL final concentration) and luciferase activity was measured 20 minutes later using the ENSPIRE Multimode plate reader. The percentage of specific lysis was calculated with the following formula:
Dimerization of transgenes was induced prior to co-cultivation experiments. Primary T cells were diluted to the final cell concentration in the respective cell culture medium. The homodimerization agent AP20187 was diluted in cell culture medium and was added at 10 nM final concentration. Addition of the vehicle control DMSO at the same concentration served as control. Cells were incubated at 37° C. for 30 minutes to ensure efficient dimerization of transgenes and subsequently used for in vitro experiments.

Row | Molecule | effect of the dimerization agent itself on lysis of target cells (A431-fLuc) | capacity to trigger cytotoxicity in presence or absence of AP20187 [1]
1 | CC[C@H](C(=O)N1CCCC[C@H]1C(=O)O[C@H](CCc1ccc(OC)c(OC)c1)c1cccc(OCC(=O)NCC(CNC(=O)COc2cccc([C@@H](CCc3ccc(OC)c(OC)c3)OC(=O)[C@@H]3CCCCN3C(=O)[C@@H](CC)c3cc(OC)c(OC)c(OC)c3)c2)CN(C)C)c1)c1cc(OC)c(OC)c(OC)c1 [AP20187, reference compound] | no effects on the lysis of target cells | –
2 | zHER2-WT: high-affinity anti-HER2 affibody with point mutations N23A and S33K | – | efficient target cell lysis independent of presence of AP20187
